Experimental data taken from patent US12076694B2, “Method of removing protein-bound substances by electrically conductive polymer” (Ming Chi University of Technology, priority 2019, dated 2024).

How the values were obtained:
[1] = biological target: BSA (Bos taurus, UniProt P02769); test: Protein binding ratio by centrifugal ultrafiltration (30-kDa cutoff); settings: 50 ppm toxin, BSA 4-40 g L^−1 in PBS buffer
[2] = comparison value for the anticoagulant; cited from earlier work

BSA, sequence (P02769 25-607): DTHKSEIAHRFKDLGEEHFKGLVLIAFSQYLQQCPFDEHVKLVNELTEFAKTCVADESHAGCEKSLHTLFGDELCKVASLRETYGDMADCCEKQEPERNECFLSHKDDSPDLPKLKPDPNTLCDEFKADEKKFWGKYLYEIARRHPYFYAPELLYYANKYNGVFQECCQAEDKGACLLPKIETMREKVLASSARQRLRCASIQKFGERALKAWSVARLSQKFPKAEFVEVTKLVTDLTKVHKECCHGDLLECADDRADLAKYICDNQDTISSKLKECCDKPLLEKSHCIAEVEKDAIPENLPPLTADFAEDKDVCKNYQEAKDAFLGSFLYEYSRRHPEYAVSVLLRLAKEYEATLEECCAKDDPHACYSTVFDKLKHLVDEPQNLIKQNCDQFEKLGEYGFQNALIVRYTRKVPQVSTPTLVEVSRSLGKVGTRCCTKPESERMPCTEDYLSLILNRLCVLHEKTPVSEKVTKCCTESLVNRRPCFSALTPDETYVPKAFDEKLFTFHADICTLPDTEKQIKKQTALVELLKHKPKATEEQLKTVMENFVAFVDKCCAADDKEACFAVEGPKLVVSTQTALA

Molecule	estimated protein-binding ratio [1]	zeta potential [2] [mV]
CN1CC(=O)NC1=N [CRT, creatinine]	1.0-2.1%	
O=C(O)CNC(=O)c1ccccc1 [HA, hippuric acid]	18.3-36.9%	
Cc1ccc(O)cc1 [PC, p-cresol]	89.4-94.4%	
heparin		−39
